The structures appear in SMILES notation.

The subject of the assay is TPM3-NTRK1-wt IC50 / primary target (e.g. CD74-ROS1-wt) IC50, Ba/F3 cells. Briefly: Cell assay TRKA selectivity (TRKA potency divided by primary target potency). To be noted: for TPM3-NTRK1-wt/CD74-ROS1-G2032R: TRKA selectivity ratio: TPM3-NTRK1-wt IC50 / CD74-ROS1-G2032R IC50, Ba/F3 cells; for TPM3-NTRK1-wt/CD74-ROS1-wt: TRKA selectivity ratio: TPM3-NTRK1-wt IC50 / CD74-ROS1-wt IC50, Ba/F3 cells; for TPM3-NTRK1-wt/EML4-ALK-L1196M-G1202R: TRKA selectivity ratio: TPM3-NTRK1-wt IC50 / EML4-ALK-L1196M-G1202R IC50, Ba/F3 cells; for TPM3-NTRK1-wt/EML4-ALK-wt: TRKA selectivity ratio: TPM3-NTRK1-wt IC50 / EML4-ALK-wt IC50, Ba/F3 cells. In kind it is cell-based. Summed up: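 Ratio of TRKA to primary-target cellular IC50 (e.g. TPM3-NTRK1-wt/CD74-ROS1-wt), grouped into bins A >30, B >10, C ≥1, D <1. Each IC50 came from engineered Ba/F3 fusion lines grown without IL-3, dosed for 72 h and read as CellTiter-Glo luminescence, with a four-parameter logistic fit.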

Turning to `CCn1nc(Cl)c2c1-c1cnc(N)c(c1)O[C@H](C)c1cc(F)ccc1-c1nn(C)cc1C2` [Example 73, (19R)-5-chloro-3-ethyl-16-fluoro-10,19-dimethyl-20-oxa-3,4,10,11,23-pentaazapentacyclo[19.3.1.0^2,^6.0^8,^12.0^13,^18]pentacosa-1(24),2(6),4,8,11,13,15,17,21(25),22-decaen-22-amine], the TPM3-NTRK1-wt/CD74-ROS1-G2032R entry was “A (bin A for very high selectivity, ratio>30-fold)”; the TPM3-NTRK1-wt/CD74-ROS1-wt result was “A (bin A for very high selectivity, ratio>30-fold)”; the TPM3-NTRK1-wt/EML4-ALK-L1196M-G1202R entry is given as “B (bin B for high selectivity, ratio>10-fold)”; the TPM3-NTRK1-wt/EML4-ALK-wt result is “A (bin A for very high selectivity, ratio>30-fold)”.

`CCn1ncc2c1-c1cnc(N)c(c1)O[C@H](C)c1cc(F)ccc1-n1nc(Cl)cc1C2` [Example 74, (19R)-10-chloro-3-ethyl-16-fluoro-19-methyl-20-oxa-3,4,11,12,23-pentaazapentacyclo[19.3.1.0^2,^6.0^8,^12.0^13,^18]pentacosa-1(24),2(6),4,8,10,13,15,17,21(25),22-decaen-22-amine]: the TPM3-NTRK1-wt/CD74-ROS1-G2032R entry is given as “A (bin A for very high selectivity, ratio>30-fold)”; the TPM3-NTRK1-wt/CD74-ROS1-wt result is reported as “A (bin A for very high selectivity, ratio>30-fold)”; the TPM3-NTRK1-wt/EML4-ALK-L1196M-G1202R entry is “B (bin B for high selectivity, ratio>10-fold)”; the TPM3-NTRK1-wt/EML4-ALK-wt result is on record as “A (bin A for very high selectivity, ratio>30-fold)”.

For the compound `CCn1ncc2c1-c1cnc(N)c(c1)OCc1cc(F)ccc1-n1nc(Cl)cc1C2` [Example 75, 10-chloro-3-ethyl-16-fluoro-20-oxa-3,4,11,12,23-pentaazapentacyclo[19.3.1.0^2,^6.0^8,^12.0^13,^18]pentacosa-1(24),2(6),4,8,10,13,15,17,21(25),22-decaen-22-amine], the TPM3-NTRK1-wt/CD74-ROS1-G2032R entry was “A (bin A for very high selectivity, ratio>30-fold)”; the TPM3-NTRK1-wt/CD74-ROS1-wt entry was “A (bin A for very high selectivity, ratio>30-fold)”; the TPM3-NTRK1-wt/EML4-ALK-L1196M-G1202R entry is “C (bin C for moderate selectivity, ratio≥1)”; the TPM3-NTRK1-wt/EML4-ALK-wt result is given as “A (bin A for very high selectivity, ratio>30-fold)”.

`CCn1nc(Cl)c2c1-c1cnc(N)c(c1)O[C@H](C)c1cc(F)ccc1-n1nc(C)cc1C2` [Example 76, (19R)-5-chloro-3-ethyl-16-fluoro-10,19-dimethyl-20-oxa-3,4,11,12,23-pentaazapentacyclo[19.3.1.0^2,^6.0^8,^12.0^13,^18]pentacosa-1(24),2(6),4,8,10,13,15,17,21(25),22-decaen-22-amine]: the TPM3-NTRK1-wt/CD74-ROS1-G2032R entry is “A (bin A for very high selectivity, ratio>30-fold)”; the TPM3-NTRK1-wt/CD74-ROS1-wt result was “A (bin A for very high selectivity, ratio>30-fold)”; the TPM3-NTRK1-wt/EML4-ALK-L1196M-G1202R result is listed as “B (bin B for high selectivity, ratio>10-fold)”; the TPM3-NTRK1-wt/EML4-ALK-wt entry is recorded as “A (bin A for very high selectivity, ratio>30-fold)”.

For the compound `CCn1ncc2c1-c1cnc(N)c(c1)O[C@H](C)c1cc(F)ccc1-c1ncoc1C2` [Example 77, (19R)-3-ethyl-16-fluoro-19-methyl-9,20-dioxa-3,4,11,23-tetraazapentacyclo[19.3.1.0^2,^6.0^8,^12.0^13,^18]pentacosa-1(24),2(6),4,8(12),10,13,15,17,21(25),22-decaen-22-amine], the TPM3-NTRK1-wt/CD74-ROS1-G2032R entry is on record as “A (bin A for very high selectivity, ratio>30-fold)”; the TPM3-NTRK1-wt/CD74-ROS1-wt entry is reported as “A (bin A for very high selectivity, ratio>30-fold)”; the TPM3-NTRK1-wt/EML4-ALK-L1196M-G1202R entry is given as “C (bin C for moderate selectivity, ratio≥1)”; the TPM3-NTRK1-wt/EML4-ALK-wt entry was “A (bin A for very high selectivity, ratio>30-fold)”.

Regarding `CCn1nnc2c1-c1cnc(N)c(c1)O[C@H](C)c1cc(F)ccc1-c1nc(C)sc1C2` [Example 78, (19R)-3-ethyl-16-fluoro-10,19-dimethyl-20-oxa-9-thia-3,4,5,11,23-pentaazapentacyclo[19.3.1.0^2,^6.0^8,^12.0^13,^18]pentacosa-1(24),2(6),4,8(12),10,13,15,17,21(25),22-decaen-22-amine], the TPM3-NTRK1-wt/CD74-ROS1-G2032R result is “A (bin A for very high selectivity, ratio>30-fold)”; the TPM3-NTRK1-wt/CD74-ROS1-wt entry is “A (bin A for very high selectivity, ratio>30-fold)”; the TPM3-NTRK1-wt/EML4-ALK-L1196M-G1202R entry is “B (bin B for high selectivity, ratio>10-fold)”; the TPM3-NTRK1-wt/EML4-ALK-wt result is reported as “A (bin A for very high selectivity, ratio>30-fold)”.

With `Cc1nn(CC(F)F)c2c1Cc1cn(C)nc1-c1ccc(F)cc1[C@@H](C)Oc1cc-2cnc1N` [Example 79, (19R)-3-(2,2-difluoroethyl)-16-fluoro-5,10,19-trimethyl-20-oxa-3,4,10,11,23-pentaazapentacyclo[19.3.1.0^2,^6.0^8,^12.0^13,^18]pentacosa-1(24),2(6),4,8,11,13,15,17,21(25),22-decaen-22-amine], the TPM3-NTRK1-wt/CD74-ROS1-G2032R entry was “A (bin A for very high selectivity, ratio>30-fold)”; the TPM3-NTRK1-wt/CD74-ROS1-wt result is given as “A (bin A for very high selectivity, ratio>30-fold)”; the TPM3-NTRK1-wt/EML4-ALK-L1196M-G1202R entry is “A (bin A for very high selectivity, ratio>30-fold)”; the TPM3-NTRK1-wt/EML4-ALK-wt result is “A (bin A for very high selectivity, ratio>30-fold)”.

Consider `CCn1ncc2c1-c1cnc(N)c(c1)O[C@H](C)c1cc(F)ccc1-n1nc(Br)cc1C2` [Example 80, (19R)-10-bromo-3-ethyl-16-fluoro-19-methyl-20-oxa-3,4,11,12,23-pentaazapentacyclo[19.3.1.0^2,^6.0^8,^12.0^13,^18]pentacosa-1(24),2(6),4,8,10,13,15,17,21(25),22-decaen-22-amine], for which the TPM3-NTRK1-wt/CD74-ROS1-G2032R result was “A (bin A for very high selectivity, ratio>30-fold)”; the TPM3-NTRK1-wt/CD74-ROS1-wt result is reported as “A (bin A for very high selectivity, ratio>30-fold)”; the TPM3-NTRK1-wt/EML4-ALK-L1196M-G1202R entry is reported as “B (bin B for high selectivity, ratio>10-fold)”; the TPM3-NTRK1-wt/EML4-ALK-wt result is given as “A (bin A for very high selectivity, ratio>30-fold)”.

Take `CCn1nc(C)c2c1-c1cnc(N)c(c1)O[C@H](C)c1cc(F)ccc1-c1nn(C)cc1C2` [Example 81, (19R)-3-ethyl-16-fluoro-5,10,19-trimethyl-20-oxa-3,4,10,11,23-pentaazapentacyclo[19.3.1.0^2,^6.0^8,^12.0^13,^18]pentacosa-1(24),2(6),4,8,11,13,15,17,21(25),22-decaen-22-amine]: the TPM3-NTRK1-wt/CD74-ROS1-G2032R entry is given as “A (bin A for very high selectivity, ratio>30-fold)”; the TPM3-NTRK1-wt/CD74-ROS1-wt entry is on record as “A (bin A for very high selectivity, ratio>30-fold)”; the TPM3-NTRK1-wt/EML4-ALK-L1196M-G1202R result is “B (bin B for high selectivity, ratio>10-fold)”; the TPM3-NTRK1-wt/EML4-ALK-wt entry is on record as “A (bin A for very high selectivity, ratio>30-fold)”.

Take `Cc1nc2c(s1)Cc1c(c(C#N)nn1C)-c1cnc(N)c(c1)O[C@H](C)c1cc(F)ccc1-2` [Example 82, (19R)-22-amino-16-fluoro-5,10,19-trimethyl-20-oxa-9-thia-4,5,11,23-tetraazapentacyclo[19.3.1.0^2,^6.0^8,^12.0^13,^18]pentacosa-1(24),2(6),3,8(12),10,13,15,17,21(25),22-decaene-3-carbonitrile]: the TPM3-NTRK1-wt/CD74-ROS1-G2032R entry is “A (bin A for very high selectivity, ratio>30-fold)”; the TPM3-NTRK1-wt/CD74-ROS1-wt entry was “A (bin A for very high selectivity, ratio>30-fold)”; the TPM3-NTRK1-wt/EML4-ALK-L1196M-G1202R entry is recorded as “B (bin B for high selectivity, ratio>10-fold)”; the TPM3-NTRK1-wt/EML4-ALK-wt result was “A (bin A for very high selectivity, ratio>30-fold)”.

For `C[C@H]1Oc2cc(cnc2N)-c2c(c(Cl)nn2CC(F)F)Cc2cn(C)nc2-c2ccc(F)cc21` [Example 83, (19R)-5-chloro-3-(2,2-difluoroethyl)-16-fluoro-10,19-dimethyl-20-oxa-3,4,10,11,23-pentaazapentacyclo[19.3.1.0^2,^6.0^8,^12.0^13,^18]pentacosa-1(24),2(6),4,8,11,13,15,17,21(25),22-decaen-22-amine], the TPM3-NTRK1-wt/CD74-ROS1-G2032R entry is listed as “A (bin A for very high selectivity, ratio>30-fold)”; the TPM3-NTRK1-wt/CD74-ROS1-wt entry was “A (bin A for very high selectivity, ratio>30-fold)”; the TPM3-NTRK1-wt/EML4-ALK-L1196M-G1202R entry is on record as “A (bin A for very high selectivity, ratio>30-fold)”; the TPM3-NTRK1-wt/EML4-ALK-wt entry was “A (bin A for very high selectivity, ratio>30-fold)”.

For `C[C@H]1Oc2cc(cnc2N)-c2c(cnn2CC(F)F)Cc2cc(C(F)(F)F)nn2-c2ccc(F)cc21` [Example 84, (19R)-3-(2,2-difluoroethyl)-16-fluoro-19-methyl-10-(trifluoromethyl)-20-oxa-3,4,11,12,23-pentaazapentacyclo[19.3.1.0^2,^6.0^8,^12.0^13,^18]pentacosa-1(24),2(6),4,8,10,13,15,17,21(25),22-decaen-22-amine], the TPM3-NTRK1-wt/CD74-ROS1-G2032R result is “A (bin A for very high selectivity, ratio>30-fold)”; the TPM3-NTRK1-wt/CD74-ROS1-wt result is listed as “A (bin A for very high selectivity, ratio>30-fold)”; the TPM3-NTRK1-wt/EML4-ALK-L1196M-G1202R entry is reported as “C (bin C for moderate selectivity, ratio≥1)”; the TPM3-NTRK1-wt/EML4-ALK-wt result was “A (bin A for very high selectivity, ratio>30-fold)”.

With `C[C@H]1Oc2cc(cnc2N)-c2c(CC(F)F)noc2Cc2cn(C)nc2-c2ccc(F)cc21` [Example 85, (19R)-3-(2,2-difluoroethyl)-16-fluoro-10,19-dimethyl-5,20-dioxa-4,10,11,23-tetraazapentacyclo[19.3.1.0^2,^6.0^8,^12.0^13,^18]pentacosa-1(24),2(6),3,8,11,13,15,17,21(25),22-decaen-22-amine], the TPM3-NTRK1-wt/CD74-ROS1-G2032R result is “A (bin A for very high selectivity, ratio>30-fold)”; the TPM3-NTRK1-wt/CD74-ROS1-wt result is given as “A (bin A for very high selectivity, ratio>30-fold)”; the TPM3-NTRK1-wt/EML4-ALK-L1196M-G1202R result is reported as “C (bin C for moderate selectivity, ratio≥1)”; the TPM3-NTRK1-wt/EML4-ALK-wt entry was “A (bin A for very high selectivity, ratio>30-fold)”.

The values are drawn from patent US11667649B2, “Heteroaromatic macrocyclic ether chemotherapeutic agents” (Nuvalent, Inc., priority 2020, dated 2023).
